pIC50: −log10 of the molar value.
What was measured:
Type in all cases: cell-based
[1] = test system: UM-UC-14 (FGFR3-S249C) cells; assay: Cell proliferation assay (CellTiterGlo), UM-UC-14 cells; conditions: inhibition of cell growth, intracellular ATP (CellTiterGlo)
Source text: (§1) The following is a non-limiting example that describes a cell proliferation assay used to determine the biological activity of the compounds of the present disclosure. More specifically, the assay as used to assess the ability of the compounds to inhibit cell proliferation.
(§2) Briefly, SNU-16 (FGFR2-amplification) cells, were resuspended at 18,520c/ml mL in RPMI containing 10% Heat Inactivated FBS, 1% L-glutamine and dispensed in duplicate (463c/well) into 384 well plates. UM-UC-14 (FGFR3-S249C) cells were resuspended at 40.000c/ml mL in RPMI containing 10% Heat Inactivated FBS, 1% L-glutamine and dispensed in duplicate (1000c/well) into 384 well plates. DMS-114 (FGFR1 overexpression) cells and were resuspended at 40,000c/ml mL in RPMI containing 10% Heat Inactivated FBS, 1% L-glutamine and dispensed in duplicate (1000c/well) into 384 well plates. RT-112 (FGFR3-Tacc3 fusion) cells were resuspended at 40,000c/ml mL in RPMI containing 10% Heat Inactivated FBS, 1% L-glutamine and dispensed in duplicate (1000c/well) into 384 well plates. To determine the effect of the compounds of the present disclosure on cell proliferation, SNU-16, UM-UC-14, DMS-114 and RT112 cells were incubated for 72 hours in the presence of vehicle control (DMSO) or a compound of the present disclosure at varying concentrations. Inhibition of cell growth was subsequently determined by luminescent quantification (Envision by Perkin Elmer) of intracellular ATP content using CellTiterGlo (Promega), according to the protocol provided by the manufacturer. To determine the IC50 values, the vehicle-treated cells were normalized as viable cells and analyzed using the CDD Vault software (Collaborative Drug Discovery, Burlingame, CA).

[2] = test system: SNU-16 (FGFR2-amplification) cells; assay: Cell proliferation assay (CellTiterGlo), SNU-16 cells; conditions: inhibition of cell growth, intracellular ATP (CellTiterGlo)
Source text: as §1, §2

[3] = test system: DMS-114 (FGFR1 overexpression) cells; assay: Cell proliferation assay (CellTiterGlo), DMS-114 cells; conditions: 72 hours, inhibition of cell growth, intracellular ATP (CellTiterGlo)
Source text: as §1, §2

[4] = test system: RT-112 (FGFR3-Tacc3 fusion) cells; assay: Cell proliferation assay (CellTiterGlo), RT-112 cells; conditions: RT112 cells, inhibition of cell growth, intracellular ATP (CellTiterGlo)
Source text: as §1, §2

[5] = test system: UM-UC-14 (FGFR3-S249C) cells; assay: cell proliferation assay (CellTiterGlo), UM-UC-14 cells; conditions: UMUC14, 72 h
In short: (§3)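 IC50 for growth inhibition, normalized to DMSO-treated cells as viable. Cell number was estimated from ATP luminescence (CellTiterGlo) following incubation with compound at varying concentrations.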

[6] = test system: SNU-16 (FGFR2-amplification) cells; assay: cell proliferation assay (CellTiterGlo), SNU-16 cells; conditions: Homo sapiens, 72 hours
In short: as §3

[7] = test system: RT-112 (FGFR3-Tacc3 fusion) cells; assay: cell proliferation assay (CellTiterGlo), RT-112 cells; conditions: Homo sapiens, RT-112, RT112 cells, 72 hours
In short: as §3

[8] = test system: DMS-114 (FGFR1 overexpression) cells; assay: cell proliferation assay (CellTiterGlo), DMS-114 cells; conditions: Homo sapiens, DMS-114, 72 h
In short: as §3

SMILES	pIC50 ([1]; UMUC14, 72 h)	pIC50 ([2]; Homo sapiens, SNU-16, 72 h)	pIC50 ([3]; Homo sapiens)	pIC50 ([4]; Homo sapiens, RT-112, 72 h)	further results
Cc1nc2ccc(Oc3ccc4ncc(-c5cnn(CC6CC(F)(F)C6)c5)nc4c3Cl)c(F)c2[nH]1 [Compound 68]	7.00 to 7.70	7.00 to 7.70	≤ 6.40	7.00 to 7.70	–
Cc1nc2ccc(Oc3ccc4ncc(-c5cnn(CC6CCOCC6)c5)nc4c3Cl)cc2[nH]1 [Compound 58]	7.00 to 7.70	–	6.40 to 7.00	7.00 to 7.70	–
Cc1nc2ccc(Oc3ccc4ncc(-c5cnn(CC6CCN(S(C)(=O)=O)CC6)c5)nc4c3Cl)cc2[nH]1 [Compound 43]	7.00 to 7.70	7.00 to 7.70	≤ 6.40	7.00 to 7.70	–
Cc1nc2ccc(Oc3ccc4ncc(-c5cnn(CCC6CCN(C)CC6)c5)nc4c3)cc2[nH]1 [Compound 55]	6.40 to 7.00	6.40 to 7.00	≤ 6.40	6.40 to 7.00	–
Cc1nc2ccc(Oc3ccc4ncc(-c5cnn(CC6CCOCC6)c5)nc4c3Cl)cc2[nH]1 [Compound 59]	–	> 7.70	–	–	pIC50 ([1]; 72 hours): > 7.70; pIC50 [3]: 6.40 to 7.00; pIC50 ([4]; 72 hours): > 7.70
Cc1nc2ccc(Oc3ccc4ncc(-c5cnn(CC6CCN(C)CC6)c5)nc4c3)cc2[nH]1 [Compound 57]	6.40 to 7.00	–	≤ 6.40	≤ 6.40	–
Cc1nc2ccc(Oc3ccc4ncc(-c5cnn(CC6CCNCC6)c5)nc4c3Cl)cc2[nH]1 [Compound 47]	–	–	–	–	pIC50 ([2]; 72 hours): 6.40 to 7.00; pIC50 [3]: ≤ 6.40; pIC50 ([4]; 72 hours): 7.00 to 7.70
Cc1nc2ccc(Oc3ccc4ncc(-c5cnn(CC6CCOC(C)(C)C6)c5)nc4c3Cl)cc2[nH]1 (centres unmarked) [Compound 8]	7.00 to 7.70	7.00 to 7.70	6.40 to 7.00	> 7.70	–
C=CC(=O)N1CCC(Cn2cc(-c3cnc4ccc(Oc5ccc6nc(C)[nH]c6c5)cc4n3)cn2)CC1 [Compound 56]	≤ 6.40	–	≤ 6.40	6.40 to 7.00	–
Cc1nc2ccc(Oc3ccc4ncc(-c5cnn(CCO)c5)nc4c3Cl)cc2[nH]1 [Compound 15]	7.00 to 7.70	7.00 to 7.70	≤ 6.40	7.00 to 7.70	–
Cc1nc2ccc(Oc3ccc4ncc(-c5cnn(CC6CCN(S(=O)(=O)C(F)F)CC6)c5)nc4c3Cl)cc2[nH]1 [Compound 12]	7.00 to 7.70	7.00 to 7.70	6.40 to 7.00	7.00 to 7.70	–
Cc1nc2ccc(Oc3ccc4ncc(-c5cnn(C6CCNCC6)c5)nc4c3Cl)cc2[nH]1 [Compound 21]	7.00 to 7.70	7.00 to 7.70	6.40 to 7.00	> 7.70	–
Cc1nc2ccc(Oc3ccc4ncc(-c5cnn(CC6CCOC6)c5)nc4c3Cl)cc2[nH]1 (centres unmarked) [Compound 2]	7.00 to 7.70	7.00 to 7.70	≤ 6.40	7.00 to 7.70	–
Cc1nc2ccc(Oc3ccc4ncc(-c5cnn(CC6CCN(CCO)CC6)c5)nc4c3Cl)cc2[nH]1 [Compound 23]	> 7.70	> 7.70	6.40 to 7.00	> 7.70	–
Cc1nc2ccc(Oc3ccc4ncc(-c5cnn(CC6CCN(C(=O)C(F)(F)F)CC6)c5)nc4c3Cl)cc2[nH]1 [Compound 18]	7.00 to 7.70	7.00 to 7.70	≤ 6.40	7.00 to 7.70	–
Cc1nc2ccc(Oc3ccc4ncc(-c5cc(CC6CCN(C)CC6)no5)nc4c3Cl)cc2[nH]1 [Compound 64]	6.40 to 7.00	6.40 to 7.00	≤ 6.40	6.40 to 7.00	–
Cc1nc2ccc(Oc3ccc4ncc(-c5cnn(CC6CCN(S(=O)(=O)C7CC7)CC6)c5)nc4c3Cl)cc2[nH]1 [Compound 42]	7.00 to 7.70	7.00 to 7.70	≤ 6.40	7.00 to 7.70	–
Cc1nc2ccc(Oc3ccc4ncc(-c5cn[nH]c5)nc4c3Cl)cc2[nH]1 [Compound 51]	≤ 6.40	≤ 6.40	≤ 6.40	6.40 to 7.00	–
Cc1nc2ccc(Oc3ccc4ncc(-c5cnn(C6CCC(F)(F)CC6)c5)nc4c3Cl)cc2[nH]1 [Compound 66]	6.40 to 7.00	6.40 to 7.00	≤ 6.40	6.40 to 7.00	–

SMILES	pIC50 ([1]; UMUC14, 72 h)	pIC50 ([2]; Homo sapiens, SNU-16, 72 h)	pIC50 ([3]; Homo sapiens)	pIC50 ([4]; Homo sapiens, RT-112, 72 h)	further results
Cc1nc2ccc(Oc3ccc4ncc(-c5cnn(CC6CC6)c5)nc4c3Cl)cc2[nH]1 [Compound 44]	6.40 to 7.00	6.40 to 7.00	≤ 6.40	6.40 to 7.00	–
Cc1cn2ccc(Oc3ccc4ncc(-c5cnn(CC6CCN(C)CC6)c5)nc4c3Cl)cc2n1 [Compound 63]	≤ 6.40	6.40 to 7.00	≤ 6.40	6.40 to 7.00	–
Cc1nc2ccc(Oc3ccc4ncc(-c5cnn(CC6CNC6)c5)nc4c3Cl)cc2[nH]1 [Compound 16]	6.40 to 7.00	6.40 to 7.00	≤ 6.40	6.40 to 7.00	–
Cc1nc2ccc(Oc3ccc4ncc(-c5cnn(CC6CCN(S(=O)(=O)CC#N)CC6)c5)nc4c3Cl)cc2[nH]1 [Compound 28]	7.00 to 7.70	7.00 to 7.70	6.40 to 7.00	7.00 to 7.70	–
Cc1nc2ccc(Oc3ccc4ncc(-c5cnn(CC6CCN(C)CC6)c5)nc4c3C)cc2[nH]1 [Compound 45]	7.00 to 7.70	7.00 to 7.70	6.40 to 7.00	7.00 to 7.70	–
Cc1nc2ccc(Oc3ccc4ncc(-c5cnn(CC6CCN(S(=O)(=O)C(C)C)CC6)c5)nc4c3Cl)cc2[nH]1 [Compound 40]	7.00 to 7.70	7.00 to 7.70	≤ 6.40	7.00 to 7.70	–
Cc1nc2ccc(Oc3ccc4ncc(-c5cnn(CC6CCNCC6)c5)nc4c3Cl)cc2[nH]1 [Compound 11]	6.40 to 7.00	–	≤ 6.40	7.00 to 7.70	pIC50 ([2]; 72 hours): 7.00 to 7.70
Cc1nc2ccc(Oc3ccc4ncc(-c5c(C)nn(CC6CCN(C)CC6)c5C)nc4c3Cl)cc2[nH]1 [Compound 52]	6.40 to 7.00	6.40 to 7.00	≤ 6.40	6.40 to 7.00	–
Cc1nc2ccc(Oc3cc4nc(-c5cnn(CC6CCN(C)CC6)c5)cnc4cc3C)cc2[nH]1 [Compound 50]	≤ 6.40	≤ 6.40	≤ 6.40	≤ 6.40	–
Cc1nc2ccc(Oc3ccc4ncc(-c5cnn(CC6(O)CC6)c5)nc4c3Cl)cc2[nH]1 [Compound 67]	7.00 to 7.70	7.00 to 7.70	≤ 6.40	7.00 to 7.70	–
Cc1nc2ccc(Oc3cc4nc(-c5cnn(CC6CCOCC6)c5)cnc4cc3Cl)cc2[nH]1 [Compound 48]	≤ 6.40	≤ 6.40	≤ 6.40	≤ 6.40	–
Cc1nc2c(C#N)cc(Oc3ccc4ncc(-c5cnn(CC6CCOCC6)c5)nc4c3)cc2[nH]1 [Compound 60]	≤ 6.40	≤ 6.40	≤ 6.40	≤ 6.40	–
Cc1nc2ccc(Oc3ccc4ncc(-c5cnn(CC(O)CO)c5)nc4c3Cl)cc2[nH]1 (centres unmarked) [Compound 22]	6.40 to 7.00	7.00 to 7.70	≤ 6.40	7.00 to 7.70	–
Cc1nc2ccc(Oc3ccc4ncc(-c5cnn(CC6CCN(S(=O)(=O)CC(C)C)CC6)c5)nc4c3Cl)cc2[nH]1 [Compound 37]	7.00 to 7.70	7.00 to 7.70	6.40 to 7.00	7.00 to 7.70	–
CC(=O)N1CCC(Cn2cc(-c3cnc4ccc(Oc5ccc6nc(C)[nH]c6c5)c(Cl)c4n3)cn2)CC1 [Compound 34]	7.00 to 7.70	–	≤ 6.40	> 7.70	–
Cc1nc2ccc(Oc3ccc4ncc(-c5cnn(CC6CC(C)OC(C)C6)c5)nc4c3Cl)cc2[nH]1 (centres unmarked) [Compound 1]	–	7.00 to 7.70	7.00 to 7.70	–	–
C=CC(=O)N1CCC(CCn2cc(-c3cnc4ccc(Oc5ccc6nc(C)[nH]c6c5)cc4n3)cn2)CC1 [Compound 54]	6.40 to 7.00	–	≤ 6.40	6.40 to 7.00	–
Cc1nc2ccc(Oc3ccc4ncc(-c5cnn(C6CN(C(=O)N7CCC7)C6)c5)nc4c3Cl)cc2[nH]1 [Compound 185]	–	–	–	–	pIC50 [5]: 7.00 to 7.70; pIC50 [6]: 7.00 to 7.70; pIC50 [7]: 7.00 to 7.70; pIC50 [8]: ≤ 6.40

Reference: patent publication US20240368181A1, “QUINOXALINE DERIVATIVES AND USES THEREOF” (Black Diamond Therapeutics, Inc., priority 2021, published 2024)
